Columns and labels:
[1] = tested on: ECHCO; experiment: In-water applied weed control, transplanted paddy rice, greenhouse (Example II); type: in vivo, Echinochloa colona (L.) Link
Method: Evaluation of in-Water Applied Herbicidal Mixtures for Weed Control in Transplanted Paddy Rice
Weed seeds or nutlets of the desired test plant species were planted in puddled soil (mud) prepared by mixing a shredded, non-sterilized mineral soil (50.5 percent silt, 25.5 percent clay, and 24 percent sand, with a pH of about 7.6 and an organic matter content of about 2.9 percent) and water at a 1:1 volumetric ratio. The prepared mud was dispensed in 365 mL aliquots into 16-ounce (oz.) non-perforated plastic pots with a surface area of 86.59 square centimeters (cm^2) leaving a headspace of 3 centimeters (cm) in each pot. Mud was allowed to dry overnight prior to planting or transplanting. Rice seeds were planted in Sun Gro MetroMix® 306 planting mixture, which typically has a pH of 6.0 to 6.8 and an organic matter content of about 30 percent, in plastic plug trays. Seedlings at the second or third leaf stage of growth were transplanted into 840 mL of mud contained in 32-oz. non-perforated plastic pots with a surface area of 86.59 cm^2 4 days prior to herbicide application. The paddy was created by filling the headspace of the pots with 2.5 to 3 cm of water. When required to ensure good germination and healthy plants, a fungicide treatment and/or other chemical or physical treatment was applied. The plants were grown for 4-22 days in a greenhouse with an approximate 14 h photoperiod which was maintained at about 29′C during the day and 26° C. during the night. Nutrients were added as Osmocote® (19:6:12, N:P:K+ minor nutrients) at 2 g per 16-oz. pot and 4 g per 32-oz. pot. Water was added on a regular basis to maintain the paddy flood, and supplemental lighting was provided with overhead metal halide 1000-Watt lamps as necessary. The plants were employed for testing when they reached the first through fourth true leaf stage.
Treatments consisted of the acid or esters of 4-amino-3-chloro-5-fluoro-6-(4-chloro-2-fluoro-3-methoxy-phenyl)pyridine-2-carboxylic acid (compound A) each formulated as an SC (suspension concentrate) and various herbicidal components alone and in combination. Forms of compound A were applied on an acid equivalent basis. […]
Treatment requirements for each compound or herbicidal component were calculated based upon the rates being tested, the concentration of active ingredient or acid equivalent in the formulation, an application volume of 2 mL per component per pot, and an application area of 86.59 cm^2 per pot.
For formulated compounds, a measured amount was placed in an individual 100 or 200 mL glass vial and was dissolved in a volume of 1.25% (v/v) Agri-Dex® crop oil concentrate to obtain application solutions. […]

[2] = tested on: SETVI; experiment: Pre-emergence soil-applied weed control, greenhouse (Example III); type: in vivo, Setaria viridis (L.) Beauv.
Source text: Evaluation of Pre-emergence Soil-Applied Herbicidal Mixtures for Weed Control
Seeds or nutlets of the desired test plant species were planted in a soil matrix prepared by mixing a loam soil (32 percent silt, 23 percent clay, and 45 percent sand, with a pH of about 6.5 and an organic matter content of about 1.9 percent) and calcareous grit in an 80 to 20 ratio. The soil matrix was contained in plastic pots with a volume of 1 quart and a surface area of 83.6 square centimeters (cm^2).
Treatments consisted of the benzyl ester of 4-amino-3-chloro-5-fluoro-6-(4-chloro-2-fluoro-3-methoxy-phenyl)pyridine-2-carboxylic acid (compound A) formulated as an SC (suspension concentrate) and various herbicidal components alone and in combination. Forms of compound A were applied on an acid equivalent basis.
Other herbicidal components were applied on an acid equivalent or active ingredient basis and included the 4-hydroxyphenyl pyruvate dioxygenase (HPPD)-inhibiting herbicide, isoxaflutole, formulated as Balance Pro®.
Treatment requirements were calculated based upon the rates being tested, the concentration of active ingredient or acid equivalent in the formulation, and a 12 mL application volume at a rate of 187 L/ha.
For treatments comprised of formulated compounds, measured amounts of compounds were placed individually in 25 mL glass vials and diluted in a volume of 1.25% (v/v) Agri-Dex® crop oil concentrate (COC) to obtain 12× stock solutions. […] Application solutions were prepared by adding an appropriate amount of each stock solution (e.g., 1 mL) and diluted to the appropriate final concentrations with the addition of 10 mL of an aqueous mixture of 1.25% (v/v) COC so that the final spray solutions contained 1.25% (v/v) COC.
All stock solutions and applications solutions were visually inspected for compound compatibility prior to application. Spray solutions were applied to the soil with an overhead Mandel track sprayer equipped with a 8002E nozzles calibrated to deliver 187 L/ha over an application area of 0.503 m^2 at a spray height of 18 inches (46 cm) above average pot height. Control pots were sprayed in the same manner with the solvent blank.
The treated and control pots were placed in a greenhouse and top watered as needed. When required to ensure good germination and healthy plants, a fungicide treatment and/or other chemical or physical treatment was applied. […] After approximately 4 weeks, the condition of the test plants as compared with that of the untreated plants was determined visually and scored on a scale of 0 to 100 percent where 0 corresponds to no injury or growth inhibition and 100 corresponds to complete kill. […]

Row | SMILES | Visual Weed Control (%) - 21 DAA ECHCO Obs ([1]; 8.75 gae/ha) | Visual Weed Control (%) - 21 DAA ECHCO Obs ([1]; 17.5 gae/ha) | Visual Weed Control (%) - 32 DAA SETVI Obs ([2]; 16 gae/ha) | Visual Weed Control (%) - 32 DAA SETVI Obs ([2]; 32 gae/ha)
1 | COc1c(Cl)ccc(-c2nc(C(=O)O)c(Cl)c(N)c2F)c1F [Compound A Acid, 4-amino-3-chloro-6-(4-chloro-2-fluoro-3-methoxyphenyl)-5-fluoropyridine-2-carboxylic acid] | 0% | 20% |  | 
2 | COc1c(Cl)ccc(-c2nc(C(=O)OCc3ccccc3)c(Cl)c(N)c2F)c1F [Compound A Benzyl Ester, benzyl ester of 4-amino-3-chloro-5-fluoro-6-(4-chloro-2-fluoro-3-methoxy-phenyl)pyridine-2-carboxylic acid] |  |  | 0% | 13%

From patent publication US8841233B2, “Herbicidal compositions comprising 4-amino-3-chloro-5-fluoro-6-(4-chloro-2-fluoro-3-methoxyphenyl) pyridine-2-carboxylic acid or a derivative thereof and 4-hydroxyphenyl-pyruvate dioxygenase (HPPD) inhibitors” (Dow Agrosciences LLC, priority 2012, dated 2014)
